In patent publication US7880007B2, “Bicyclic substituted phenyl piperidine modulators of muscarinic receptors” (Vertex Pharmaceuticals Incorporated, priority 2004, dated 2011):

Legend:
Type in all cases: cell-based
[1] = target: T1, M2 muscarinic receptor (Homo sapiens, UniProt P08172); test: Functional mobilization of intracellular calcium (FLIPR), M2-CHO cells; conditions: for Emax: 100% efficacy = maximum response obtained with the Carbachol control; for M2 Activity: M2-CHO cells, calcium mobilization (FLIPR)
T1 construct: expressed in transfected cells; host or cells: CHO (M2-CHO)
T1 sequence (P08172 1-466): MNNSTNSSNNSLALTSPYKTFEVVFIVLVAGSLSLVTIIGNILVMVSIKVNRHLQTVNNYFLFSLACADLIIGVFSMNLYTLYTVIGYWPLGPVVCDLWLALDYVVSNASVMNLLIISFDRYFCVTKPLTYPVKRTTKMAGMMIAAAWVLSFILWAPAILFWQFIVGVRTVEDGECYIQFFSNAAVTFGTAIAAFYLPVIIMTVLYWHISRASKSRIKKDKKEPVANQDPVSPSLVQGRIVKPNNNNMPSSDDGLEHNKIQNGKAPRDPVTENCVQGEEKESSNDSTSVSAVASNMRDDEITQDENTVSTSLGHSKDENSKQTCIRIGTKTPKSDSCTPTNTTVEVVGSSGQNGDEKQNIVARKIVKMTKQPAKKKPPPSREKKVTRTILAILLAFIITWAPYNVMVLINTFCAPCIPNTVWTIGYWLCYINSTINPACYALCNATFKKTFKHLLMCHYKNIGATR
Description: (§1) Functional Mobilization of Intracellular Calcium to Determine Muscarinic Receptor Activity:
(§2) CHO cells expressing muscarinic receptors (M1 to M5) are grown as monolayers in tissue culture flasks at 37° C. in a humidified atmosphere containing 5% CO2 and passaged every 3-5 days. The growth media is Dulbecco's modified eagles medium (DMEM, Gibco Cat #12430-054), containing 25 mM Hepes and supplemented with Fetal Bovine Serum (Hyclone, cat #SH30071.03), 0.1 mM of MEM non-essential amino acids (GIBCO, Cat #11140-050), 1 mM MEM Sodium Pyruvate (GIBCO Cat #11360-070) and 100 units/ml of Penicillin G and 100 μg/ml of Streptomycin (GIBCO Cat #15140-122). The recombinant muscarinic receptor cell lines are grown under antibiotic pressure with media containing 25 μg/ml zeocin and 500 μg/ml G418 (M1-CHO), 4 μg/ml puromycin, 50 μg/ml zeocin and 2.5 μg/ml blasticidin (M2 and M4-CHO) or 50 μg/ml zeocin and 4 μg/ml puromycin (M3 and M5-CHO).
(§3) Cells are harvested at 80-90% confluence using Versene (GIBCO Cat #15040-066), collected by centrifugation and seeded 18-24 hrs prior to running the calcium assay at a density of 5,000-10,000 cells/well in […], clear-bottomed 384-well plates (BD Biocoat, poly-D-lysine, Cat #356663). The day of the experiment, the cells are washed with a plate washer (Bioteck Instruments, ELX 405) using bath 1 buffer (140-mM NaCl, 4.5-mM KCl, 2-mM CaCl2, 1-mM MgCl2, 10-mM Hepes-Na, 10-mM Glucose, pH 7.4, with NaOH) containing 1 mM Probenecid. Next, the calcium dye Fluo-3 (25 μl/well of Fluo-3 AM at 4 μM, Molecular Probes F-1241, in Bath 1 buffer containing 1 mM Probenecid) is added to the 25 μl of Bath 1 remaining in each well after the plate wash and the dye is loaded at 37° C. in the tissue culture incubator for 60-90 min. The fluorescent dye is removed using the plate washer with Bath 1 containing 1 mM Probenecid, leaving 25 μl/well of this solution after the wash. Alternatively, cells can be loaded with the calcium indicator from Molecular Devices (Calcium 3 Assay Reagents, Cat #R7181) adding 5 μl of a 5× solution dye in Bath 1 containing 1 mM Probenecid (10 ml per dye flask cat #R7182 to generate a solution 20×) to 20 μl of the same buffer. After loading for 60 min, the experiment can be run without having to remove the dye.
(§4) Compounds are prepared at a 2× fold concentration in a 96-well plate (round bottom, Costar Corning cat #3656), by reconstituting the pre-spotted compounds in bath 1 containing 1 mM probenecid. The final concentration DMSO is 0.5%, and the amount of DMSO is normalized across the assay plate. To determine an agonist action of the compounds on muscarinic receptors, the reconstituted compounds are added (25 μl compound/well) to the cell assay plate (containing 25 μl/well) using the multi-channel robotic system of the FLIPR 3 Instrument (Molecular Devices, Sunnyvale, Calif.). To determine a functional inhibitory action of the compounds on muscarinic receptors, the reconstituted compounds are added (25 μl compound/well) to the assay plate and pre-incubated for 15 min prior to adding 25 μl of Carbachol at 3× the EC80 for each muscarinic subtype. Alternatively, the compounds can be co-applied simultaneously with the agonist. In both assay modes, the fluorescence is recorded for 60 sec (excitation wavelength is […] and emission wavelength 540 nm) using the FLIPR 3 instrument.
(§5) The potency, efficacy and selectivity of the muscarinic compounds were evaluated by screening the compound activity across the whole family (M1 to M5 cells). Compounds were also screened for activity on other proteins such as other GPCRs and ion channels to determine selectivity on M4 receptors.
(§6) Examples of activities and efficacies of the muscarinic compounds of formulae (I, Ia, Ib, and II) on modulating M1, M2, M3 and M4 receptors are shown below in Table 3. […]

[2] = target: T2, M4 muscarinic receptor (Homo sapiens, UniProt P08173); test: Functional mobilization of intracellular calcium (FLIPR), M4-CHO cells; conditions: for Emax: 100% efficacy = maximum response obtained with the Carbachol control; for M4 Activity: M4-CHO cells, calcium mobilization (FLIPR)
T2 construct: expressed in transfected cells; host or cells: CHO (M4-CHO)
T2 sequence (P08173 1-479): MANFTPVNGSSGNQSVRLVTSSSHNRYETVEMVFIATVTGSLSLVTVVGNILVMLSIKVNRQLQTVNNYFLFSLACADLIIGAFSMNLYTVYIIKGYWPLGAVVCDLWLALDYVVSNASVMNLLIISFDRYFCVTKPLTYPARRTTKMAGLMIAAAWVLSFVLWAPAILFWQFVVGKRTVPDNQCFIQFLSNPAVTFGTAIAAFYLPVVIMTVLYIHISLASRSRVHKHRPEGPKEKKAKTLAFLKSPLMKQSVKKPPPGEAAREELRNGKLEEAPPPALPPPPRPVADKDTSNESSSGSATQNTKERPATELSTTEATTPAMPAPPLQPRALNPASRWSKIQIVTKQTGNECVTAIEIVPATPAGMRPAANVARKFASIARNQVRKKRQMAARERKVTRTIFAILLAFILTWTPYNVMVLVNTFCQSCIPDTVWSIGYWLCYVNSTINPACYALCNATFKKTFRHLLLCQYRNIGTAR
Description: as §1, §2, §3, §4, §5, §6

[3] = target: T3, M1 muscarinic receptor (Homo sapiens, UniProt P11229); test: Functional mobilization of intracellular calcium (FLIPR), M1-CHO cells; conditions: for Emax: 100% efficacy = maximum response obtained with the Carbachol control; for M1 Activity: M1-CHO cells, calcium mobilization (FLIPR)
T3 construct: expressed in transfected cells; host or cells: CHO (M1-CHO)
T3 sequence (P11229 1-460): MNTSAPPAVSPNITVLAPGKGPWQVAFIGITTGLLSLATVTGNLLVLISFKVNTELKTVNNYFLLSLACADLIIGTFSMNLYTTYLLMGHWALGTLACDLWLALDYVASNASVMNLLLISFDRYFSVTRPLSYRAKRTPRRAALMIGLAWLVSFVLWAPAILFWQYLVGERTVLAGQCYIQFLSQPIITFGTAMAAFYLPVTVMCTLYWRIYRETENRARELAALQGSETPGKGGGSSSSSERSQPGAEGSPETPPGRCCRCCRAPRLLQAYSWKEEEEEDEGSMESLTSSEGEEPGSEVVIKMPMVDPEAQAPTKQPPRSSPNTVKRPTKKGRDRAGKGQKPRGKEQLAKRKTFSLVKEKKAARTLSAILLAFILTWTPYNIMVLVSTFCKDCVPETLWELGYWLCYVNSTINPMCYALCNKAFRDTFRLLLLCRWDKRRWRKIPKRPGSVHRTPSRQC
Description: as §1, §2, §3, §4, §5, §6

Structure (SMILES) | Emax [1] | M2 Activity [1] | Emax [2] | M4 Activity [2] | Emax [3] | M1 Activity [3]
COc1ccc(Cl)cc1C1(O)CCN(C2CCCCC2)CC1 [Compound 99] | < 25% | + (activity was measured to be greater than 5.0 μM) | 25 to 100% | ++ (activity was measured to be from 1.0 μM to 5.0 μM) | < 25% | + (activity was measured to be greater than 5.0 μM)
COc1ccc(Cl)cc1C1(OC)CCN(C2CCCCCC2)CC1 [Compound 101] | < 25% | + (activity was measured to be greater than 5.0 μM) | 25 to 100% | +++ (activity was measured to be less than 1.0 μM) | 25 to 100% | ++ (activity was measured to be from 1.0 μM to 5.0 μM)
COc1ccc(C)cc1C1CCN(CC2C[C@H]3CC[C@H]2C3)CC1 (stereo partly drawn) [Compound 107] | < 25% | + (activity was measured to be greater than 5.0 μM) | 25 to 100% | +++ (activity was measured to be less than 1.0 μM) | 25 to 100% | + (activity was measured to be greater than 5.0 μM)
CCCC1CCC(N2CCC(c3cc(F)ccc3OC)CC2)CC1 (stereo not drawn) [Compound 125] | 25 to 100% | ++ (activity was measured to be from 1.0 μM to 5.0 μM) | 25 to 100% | +++ (activity was measured to be less than 1.0 μM) | 25 to 100% | +++ (activity was measured to be less than 1.0 μM)
CCOC(=O)N1C2CCC1CC(N1CCC(C#N)(c3ccccc3OC)CC1)C2 (stereo not drawn) [Compound 131] | < 25% | + (activity was measured to be greater than 5.0 μM) | 25 to 100% | +++ (activity was measured to be less than 1.0 μM) | 25 to 100% | +++ (activity was measured to be less than 1.0 μM)
COc1ccccc1C1(C#N)CCN(C2CC3CCC2C3)CC1 (stereo not drawn) [Compound 136] | < 25% | + (activity was measured to be greater than 5.0 μM) | 25 to 100% | ++ (activity was measured to be from 1.0 μM to 5.0 μM) | 25 to 100% | + (activity was measured to be greater than 5.0 μM)
COc1ccc(Cl)cc1C1CCN(CC2CC3C=CC2C3)CC1 (stereo not drawn) [Compound 141] | 25 to 100% | ++ (activity was measured to be from 1.0 μM to 5.0 μM) | 25 to 100% | +++ (activity was measured to be less than 1.0 μM) | 25 to 100% | ++ (activity was measured to be from 1.0 μM to 5.0 μM)
CCOC(=O)N1[C@@H]2CC[C@@H]1CC(N1CCC(c3cc(F)ccc3C)CC1)C2 (stereo partly drawn) [Compound 145] | 25 to 100% | +++ (activity was measured to be less than 1.0 μM) | 25 to 100% | +++ (activity was measured to be less than 1.0 μM) | 25 to 100% | +++ (activity was measured to be less than 1.0 μM)
COc1ccc(C2CCN(CC3C[C@H]4CC[C@H]3C4)CC2)c(OC)c1 (stereo partly drawn) [Compound 159] | < 25% | + (activity was measured to be greater than 5.0 μM) | < 25% | ++ (activity was measured to be from 1.0 μM to 5.0 μM) | < 25% | + (activity was measured to be greater than 5.0 μM)
CCCC1CCC(N2CCC(O)(c3cc(Cl)ccc3OC)CC2)CC1 (stereo not drawn) [Compound 164] | < 25% | + (activity was measured to be greater than 5.0 μM) | 25 to 100% | ++ (activity was measured to be from 1.0 μM to 5.0 μM) | < 25% | + (activity was measured to be greater than 5.0 μM)
COc1ccc(NC(C)=O)cc1C1CCN(CC2C[C@H]3CC[C@H]2C3)CC1 (stereo partly drawn) [Compound 166] | < 25% | + (activity was measured to be greater than 5.0 μM) | < 25% | + (activity was measured to be greater than 5.0 μM) | < 25% | + (activity was measured to be greater than 5.0 μM)
